Data on 8 compounds can be found in PubChem BioAssay (NCI).

Among the test systems are SK-MEL-5 melanoma; OVCAR-8 ovarian; UACC-62 melanoma; MALME-3M melanoma; HCC-2998 colon; HCT-116 colon; T-47D breast; HT29 colon; MCF7 breast; K-562 leukemia.
Common to all, as to assay: NCI anticancer screen, dose series, 48 h

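Dose response: 5 concentrations. Exposure: 48 h. Format: 96-well plates. Endpoint: linear interpolation; highest concentration if not reached. At the GI50, growth is halved. TGI is the concentration that stops growth completely.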

Consider `COc1ccccc1N1CCN(C(=O)c2ccc(NS(=O)(=O)c3cccc4cccnc34)cc2)CC1`, for which the GI50 was more than 100 µM in the assay on SK-MEL-5 melanoma; more than 43.5 µM in the assay with OVCAR-8 ovarian; more than 100 µM with UACC-62 melanoma; more than 100 µM in the assay with MALME-3M melanoma; more than 100 µM with HCC-2998 colon; more than 94.2 µM in the assay with HCT-116 colon. Further, the GI50 in the assay on T-47D breast is more than 22.1 µM; in the assay on HT29 colon it was more than 100 µM; with MCF7 breast it was more than 49.4 µM; with K-562 leukemia, more than 100 µM. The TGI in the assay on SK-MEL-5 melanoma, in the assay with OVCAR-8 ovarian, with UACC-62 melanoma, in the assay with MALME-3M melanoma, in the assay on HCC-2998 colon and in the assay on HCT-116 colon was more than 100 µM each time. Further, the TGI in the assay with T-47D breast, in the assay with HT29 colon, in the assay on MCF7 breast and in the assay with K-562 leukemia was more than 100 µM each time.
In the case of `O=c1ccccc(-c2ccc(-c3ccco3)cc2)c1O`, the GI50 was 0.935 µM in the assay with SK-MEL-5 melanoma; 0.507 µM in the assay on OVCAR-8 ovarian; 0.588 µM in the assay with UACC-62 melanoma; 2.77 µM in the assay on MALME-3M melanoma; 0.691 µM with HCC-2998 colon; 0.582 µM in the assay with HCT-116 colon. Also, the GI50 in the assay with T-47D breast is 1.56 µM; in the assay on HT29 colon, 1.7 µM; in the assay with MCF7 breast it was 0.412 µM; in the assay on K-562 leukemia it was 0.603 µM. The TGI worked out at 8.44 µM with SK-MEL-5 melanoma; 29 µM in the assay with OVCAR-8 ovarian; 4.14 µM in the assay with UACC-62 melanoma; 26.3 µM in the assay on MALME-3M melanoma; 33.2 µM with HCC-2998 colon; 15.8 µM in the assay on HCT-116 colon. Further, the TGI in the assay on T-47D breast is 80.3 µM; in the assay with HT29 colon, 65.6 µM; in the assay with MCF7 breast, 29.8 µM; with K-562 leukemia, more than 100 µM.
For `O=C1c2cccc3cc([N+](=O)[O-])cc(c23)C(=O)N1CCN1CCCC1`, the GI50 with SK-MEL-5 melanoma is 0.293 µM; in the assay on OVCAR-8 ovarian, 0.566 µM; in the assay on UACC-62 melanoma it was 0.322 µM; in the assay with MALME-3M melanoma, 0.18 µM; with HCC-2998 colon it was 0.582 µM; in the assay with HCT-116 colon it was 0.441 µM. The GI50 was 0.302 µM in the assay on T-47D breast, 0.593 µM in the assay with HT29 colon, 0.309 µM in the assay with MCF7 breast and 0.534 µM in the assay with K-562 leukemia. Also, the TGI is 0.943 µM in the assay with SK-MEL-5 melanoma; 4.38 µM in the assay with OVCAR-8 ovarian; 1.71 µM in the assay on UACC-62 melanoma; 1.07 µM in the assay on MALME-3M melanoma; 2.74 µM with HCC-2998 colon; more than 100 µM with HCT-116 colon. Further, the TGI worked out at 2.28 µM with T-47D breast, 7.6 µM in the assay on HT29 colon and 3.83 µM in the assay with MCF7 breast.
Turning to `CC1OC(O[C@H]2/C=C/C=C/C=C/C=C/C=C/C=C/C=C/[C@H](C)[C@@H](O)[C@@H](C)[C@H](C)OC(=O)C[C@H](O)C[C@H](O)CC[C@@H](O)[C@H](O)C[C@H](O)C[C@]3(O)C[C@H](O)[C@@H](C(=O)O)[C@H](C2)O3)C(O)C(N)C1O` (some centres undefined), the GI50 in the assay on SK-MEL-5 melanoma is 25.8 µM; in the assay with OVCAR-8 ovarian it was 33 µM; with UACC-62 melanoma it was 21.8 µM; in the assay with MALME-3M melanoma it was 5.47 µM; in the assay with T-47D breast it was 52.3 µM. The TGI with SK-MEL-5 melanoma was 59 µM; in the assay on OVCAR-8 ovarian, 57.6 µM; with UACC-62 melanoma, 43.9 µM; in the assay with MALME-3M melanoma it was 15.3 µM; with HCC-2998 colon it was 61.2 µM; in the assay with HCT-116 colon it was 50.2 µM. The TGI is more than 86.8 µM in the assay on T-47D breast, 56.4 µM in the assay on HT29 colon, 56.1 µM in the assay with MCF7 breast and more than 100 µM with K-562 leukemia.
For the compound `CN(C)CCNC1=CC(=O)c2c(O)ccc(O)c2C1=O`, the TGI in the assay with SK-MEL-5 melanoma was 3.28 µM; in the assay on OVCAR-8 ovarian, 25.9 µM; with UACC-62 melanoma it was 5.63 µM; with MALME-3M melanoma it was 2.62 µM; with HCC-2998 colon, 13.5 µM; in the assay with HCT-116 colon, 9.05 µM. In addition, the TGI was 25.5 µM in the assay on T-47D breast, 8.75 µM with HT29 colon, 7.27 µM in the assay on MCF7 breast and more than 100 µM in the assay with K-562 leukemia.
Consider `C=C1SC(=Nc2ccccc2Cl)N(C(=O)c2sc3ccccc3c2Cl)C1(C)C`, for which the GI50 with SK-MEL-5 melanoma was 6.65 µM; in the assay on OVCAR-8 ovarian it was 5.08 µM; in the assay on UACC-62 melanoma it was 9.24 µM; with MALME-3M melanoma, 2.01 µM; in the assay on HCC-2998 colon it was 8.54 µM; in the assay with HCT-116 colon, 8.01 µM. In addition, the GI50 is 3.09 µM with T-47D breast, 14.2 µM in the assay on HT29 colon, 3.76 µM with MCF7 breast and 4.51 µM with K-562 leukemia. Also, the TGI with SK-MEL-5 melanoma is 25.2 µM; in the assay on OVCAR-8 ovarian, more than 100 µM; in the assay with UACC-62 melanoma it was more than 100 µM; with MALME-3M melanoma, 34.6 µM; in the assay on HCC-2998 colon it was more than 45 µM; with HCT-116 colon, more than 44.5 µM. The TGI in the assay with T-47D breast was 26.8 µM; in the assay with HT29 colon, 51.7 µM; in the assay on MCF7 breast, more than 51.7 µM; in the assay with K-562 leukemia, more than 37.4 µM.
`CCC(c1ccc(OC)cc1)C(CC)c1ccc(O)c(CN2CCCC2)c1` (centres undefined): the GI50 in the assay with SK-MEL-5 melanoma was 1.74 µM; in the assay on OVCAR-8 ovarian, 3.08 µM; in the assay on UACC-62 melanoma, 2.07 µM; in the assay with MALME-3M melanoma, 1.76 µM; in the assay on HCC-2998 colon it was 2.29 µM; with HCT-116 colon, 3.44 µM. For the same compound, the GI50 in the assay on T-47D breast is 2.1 µM; with HT29 colon, 2.18 µM; with MCF7 breast it was 2.74 µM; in the assay on K-562 leukemia it was 1.61 µM. For the same compound, the TGI in the assay on SK-MEL-5 melanoma worked out at 3.22 µM; in the assay on OVCAR-8 ovarian, 10.7 µM; in the assay with UACC-62 melanoma, 4.97 µM; with MALME-3M melanoma, 3.95 µM; with HCC-2998 colon, 4.38 µM; with HCT-116 colon, 12.5 µM. In addition, the TGI in the assay on T-47D breast was 6.4 µM; in the assay with HT29 colon, 5.78 µM; in the assay with MCF7 breast it was 6.47 µM; with K-562 leukemia, 5.59 µM.
In the case of `O=C(Nc1ccc(Cl)cc1)c1cc2cc(F)ccc2cc1O`, the GI50 in the assay with SK-MEL-5 melanoma was 0.417 µM; with OVCAR-8 ovarian it was 2.93 µM; with UACC-62 melanoma, 0.622 µM; in the assay with MALME-3M melanoma it was 0.613 µM; with HCC-2998 colon, 3.13 µM; in the assay on HCT-116 colon it was 0.963 µM. Also, the GI50 is 0.941 µM in the assay on T-47D breast, 3.67 µM in the assay with HT29 colon, 1.54 µM in the assay on MCF7 breast and 0.491 µM in the assay on K-562 leukemia. Also, the TGI in the assay on SK-MEL-5 melanoma was 1.52 µM; in the assay with OVCAR-8 ovarian, more than 100 µM; in the assay on UACC-62 melanoma it was 23.6 µM; in the assay on MALME-3M melanoma, 4.11 µM; with HCC-2998 colon, more than 100 µM; with HCT-116 colon, 6.66 µM. The TGI in the assay on T-47D breast was 5.36 µM; in the assay on HT29 colon, 40 µM; with MCF7 breast, 6.51 µM; in the assay on K-562 leukemia it was more than 100 µM.
